Where two headings read alike, the source gives them in different places.
What was measured:
[1] = test system: baboon granulosa cells; experiment: Baboon granulosa cell culture, progesterone release; format: cell-based; settings: chicken II analog 10^−9 to 10^−6 M; Buserelin 10^−7
Text: The biopotency of chicken II GnRH analogs (SEQ ID NO: 2) in the regulation of baboon ovarian function was studied. The effect of mammalian and chicken II GnRH analogs (SEQ ID NO: 2) on ovarian progesterone release was studied using granulosa cell cultures. The dose-related action of a stable analog of chicken II GnRH (SEQ ID NO: 2) on progesterone production was defined using baboon granulosa cell cultures. After a two hour basal study period, the medium was supplemented with either Buserilin (SEQ ID NO: 10) (10^−7) or a chicken II GnRH analog (SEQ ID NO: 2) (10^−9, 10^−8, 10^−7, 10^−6 M) leaving four control wells. […] This inhibition was sustained after 48 hours of treatment. […] In addition, the action of the analog on three different stromal and three different epithelial endometrial primary cell lines (after 3-5 passages) has been studied and PGE2 determined as indicated in FIG. 31.

[2] = test system: early human placental explants; experiment: Placental explant perifusion, hCG release; format: cell-based
Text: Placental tissues that are normally discarded were obtained from unidentified patients following first trimester pregnancy termination (early human placental explants). Tissue fragments, dissected of vessels and membranes, were placed in a perfusion system for study of 20 replicate chambers of the same tissue. This allows for simultaneous dose-response studies to be performed. To achieve this specific aim, explants from a given placenta were placed in 20 replicate chambers and perfused with basal medium for three hours at a rate of 6 ml/hr (dead volume of the system at 6 ml/hr is ten minutes). After three hours of equilibration, the analog was added to the basal perfusing medium. Quaduplicate chambers were made for chicken II GnRH analog (SEQ ID NO: 2) at 0, 10^−9, 10^−8, 10^−7, 10^−6 M and Buserelin (SEQ ID NO: 10) at 10^−7 M. The effluent medium of each chamber was collected after a three hour equilibration period. Two basal samples, at half hour intervals were collected, media with test substances was initiated and effluent medium collection continued for four and one half hours at thirty minute intervals. The hCG release was analyzed in each of these experiments. FIGS. 16 and 17 illustrate a typical response. […] Maximal response was observed within minutes after initiation of perfusion at 10^−8 M, with possible down regulation beginning after five hours at 10^−6 M as illustrated in FIG. 18.
In additional experiments, early gestation human placentas were perfused for six hours with medium supplemented with estradiol, progesterone, bovine serum albumin, and antibiotics (basal medium). Twenty replicate chambers were perifused with basal medium for two hours, then triplicate chambers were perifused with the medium containing either Buserelin (SEQ ID NO: 10), or 10^−9, 10^−8, 10^−7, 10^−6 M of a chicken II GnRH analog (SEQ ID NO: 2), leaving five control chambers. The eluted medium was collected at thirty minute intervals, starting one hour prior to the addition of GnRH analogs and throughout five hours of treatment. hCG released into the effluent media, as well as the production of GnRH, were measured using sensitive and specific radioimmunoassays. The release of hCG at each time point was normalized to its zero treatment release and the release throughout the treatment period and its average release was compared for various treatment regimens. These studies were repeated using tissues from three different first trimester placentas. The results of this experiment are illustrated in FIG. 20.

[3] = test system: chorionic peptidase-1 (C-ase-1); experiment: C-ase-1 enzyme activity assay, competition for degradation of GnRH
Procedure: (§1) Using the incubation system developed for the C-ase-1 activity, the degradation of each analog was tested. […] These studies were done using the C-ase-1 enzyme activity assay as described previously. […] The product formed was calculated by subtraction, and its inverse plotted against the inverse of the original substrate concentrations to determine the nature of the competition. The Ki was to be determined by plotting the inverse of the product that formed verses the inhibitor used.
(§2) The concentration of the product of the degraded GnRH was quantified by subtracting the remaining mammalian GnRH from the starting concentrations of mammalian GnRH. […] The Ks for the degradation of mammalian GnRH was calculated from the x axis intercept using Lineweaver-Burke double reciprocal plot of the concentration of the product formed versus the concentration of the substrate used.
(§3) The reaction was stopped by heating at 85° C. for 10 minutes. The remaining GnRH was determined using a specific radioimmunoassay. The formation of product, i.e., the N-terminal nonapeptide of GnRH, was calculated by subtraction and its inverse was plotted versus the inverse of the initial substrate to determine the Ks of the reaction. […] The relative potency of each analog was compared.
(§4) Using the incubation system developed for the C-ase-1 activity, the degradation of each analog was studied. […] The inverse of the product was plotted against the inverse of the original substrate concentrations to determine Ks of the competition. The Ki was determined by plotting the inverse of the product formed verses the inhibitor used.

[4] = target: placental GnRH receptor; experiment: Mean
Text: Table printed on a drawing sheet, Fig. 1
The patent's description of the figure: FIG. 1. Placental Kds for Chicken II and Mammalian GnRH Analogs
First copying reader's note: Each column is one GnRH analog; the rows are Kd values in individual placentas, followed by the mean and SEM.
Where the first naming reader finds the target: passage: the affinity for the placental GnRH receptor was enhanced 2 fold

[5] = test system: human placental GnRH receptor; experiment: Placental GnRH receptor binding, 125I-Buserelin label
Procedure: The newly synthesized non-mammalian GnRH analogs and other commercially available mammalian GnRH analogs were used in placental receptors binding and enzyme stability study described here. […] GnRH receptors were purified from the membrane fractions from placentas. The purification procedure for the placental GnRH receptor was performed using a modification of the method described by Bramley et al., which reference is specifically incorporated herein by reference for the purpose. Addition of enzyme inhibitors for the endogenous C-ase-1 were used as well as agents for receptor stabilization. Initially, receptor-binding assays using ^125I-Buserelin as label were performed. The competitive binding of each of the analogs was studied over a dose range of 10^−11 to 10^−6 M. Incubation was at room temperature and receptor bound label was precipitated with polyethylene glycol. Specific and non-specific binding was determined. The data was subjected to Scatchard analysis. The non-mammalian GnRH analogs' ability to bind to the placental GnRH receptor was compared to that for synthetic mammalian GnRH (SEQ ID NO: 5), Buserelin (SEQ ID NO: 10) and other mammalian analogs. […] This way, the receptor affinity for that analog could be precisely determined. Receptors from three different term placentas were used to study each of these analogs. […] Bramley T A, McPhie C A, Menzies G S 1994 Human placental gonadotropin-releasing hormone (GnRH) binding sites: 111. […] Placenta 15:733-745.
In these and additional studies, placental GnRH receptors were purified from human term placentas after homogenization in 40 mM Tris (pH 7.4) and filtered through cheesecloth, followed by an initial centrifugation at 1,000×g for 10 minutes. The resulting supernatant was, again, centrifuged at 35,000×g for 30 minutes and the membrane pellet was collected and resuspended in Tris buffer with 0.3 M sucrose. The protein concentration was determined. Membranes were stored frozen at −20 C until use. Before use, placental membranes were diluted to 5,000 μg/mL with Tris buffer containing 0.5% BSA and 50 U/mL bacitracin. […] Following incubation at room temperature for 4 hours, the bound and free hormones were separated using polyethylene glycol precipitation, followed by centrifugation. The binding affinity for each GnRH isoform or analog was calculated using the double reciprocal plot of bound versus free ligand. Each study was done using three different human term placental tissues.
Receptor assays were performed by incubating human term placental GnRH receptors with varying concentrations of GnRH or its analogs in the presence of ^125I-Buserelin. The reaction was stopped and the bound hormone precipitated with polyethylene glycol.

[6] = test system: chorionic peptidase-1 (C-ase-1); settings: neutral pH; read-out: Km for degradation by C-ase-1; cited from earlier work
[7] = test system: chorionic peptidase-1 (C-ase-1)
Procedure: as §1, §2, §3, §4

[8] = test system: human placental GnRH receptor; experiment: Placental GnRH receptor binding, radiolabeled D-Arg(6)-chicken II GnRH-aza-Gly(10)-amide label; settings: versus Buserelin label
Procedure: The newly synthesized non-mammalian GnRH analogs and other commercially available mammalian GnRH analogs were used in placental receptors binding and enzyme stability study described here. On the basis of these studies, the most receptor potent and enzyme-stable analogs were chosen for further biopotency studies. GnRH receptors were purified from the membrane fractions from placentas. The purification procedure for the placental GnRH receptor was performed using a modification of the method described by Bramley et al., which reference is specifically incorporated herein by reference for the purpose. Addition of enzyme inhibitors for the endogenous C-ase-1 were used as well as agents for receptor stabilization. Initially, receptor-binding assays using ^125I-Buserelin as label were performed. The competitive binding of each of the analogs was studied over a dose range of 10^−11 to 10^−6 M. Incubation was at room temperature and receptor bound label was precipitated with polyethylene glycol. Specific and non-specific binding was determined. The data was subjected to Scatchard analysis. The non-mammalian GnRH analogs' ability to bind to the placental GnRH receptor was compared to that for synthetic mammalian GnRH (SEQ ID NO: 5), Buserelin (SEQ ID NO: 10) and other mammalian analogs. […] This way, the receptor affinity for that analog could be precisely determined. Receptors from three different term placentas were used to study each of these analogs. […] Bramley T A, McPhie C A, Menzies G S 1994 Human placental gonadotropin-releasing hormone (GnRH) binding sites: 111. Changes in GnRH binding levels with stage of gestation. Placenta 15:733-745.
In these and additional studies, placental GnRH receptors were purified from human term placentas after homogenization in 40 mM Tris (pH 7.4) and filtered through cheesecloth, followed by an initial centrifugation at 1,000×g for 10 minutes. The resulting supernatant was, again, centrifuged at 35,000×g for 30 minutes and the membrane pellet was collected and resuspended in Tris buffer with 0.3 M sucrose. The protein concentration was determined. Membranes were stored frozen at −20 C until use. Before use, placental membranes were diluted to 5,000 μg/mL with Tris buffer containing 0.5% BSA and 50 U/mL bacitracin. Placental membranes (100 μL) were used with varying concentrations of mammalian GnRH (SEQ ID NO: 5), Buserelin (SEQ ID NO: 10), chicken II GnRH (SEQ ID NO: 6), D-Arg (6)-chicken II GnRH-des-Gly (10)-ethylamide (SEQ ID NO: 2), or D-Arg (6)-chicken II GnRH-aza-Gly (10)-amide (SEQ ID NO: 2) (100 μL) and either radiolabeled Buserelin (SEQ ID NO: 10) or radiolabeled D-Arg (6)-chicken II GnRH-aza-Gly (10)-amide (SEQ ID NO: 2) (100 μL/tube and iodinated). Following incubation at room temperature for 4 hours, the bound and free hormones were separated using polyethylene glycol precipitation, followed by centrifugation. The binding affinity for each GnRH isoform or analog was calculated using the double reciprocal plot of bound versus free ligand. Each study was done using three different human term placental tissues.

[9] = test system: human term placental explants; experiment: Static explant culture, release of hCG, progesterone, PGE2; format: cell-based; settings: 0.25-1.00 μM, four placentas
Text: The biological activity of the newly synthesized non-mammalian GnRH analogs was studied using a static implant culture system. This system allows for inexpensive extended activity studies. Mammalian GnRH action on the human placenta release of hCG, progesterone and prostaglandins were defined using this system. Replicate cultures were studied, thus allowing for comparison of different doses of each non-mammalian GnRH analog to mammalian GnRH (SEQ ID NO: 5), as well as direct competition assays. […] These studies were repeated using different human placentas. Siler-Khodr T M, Khodr G S, Valenzuela G, Rhode J 1986 Gonadotropin-releasing hormone effects on placental hormones during gestation: II. Progesterone, estrone, estradiol and estriol. Biol Reprod 34:255-264; Siler-Khodr T M, Khodr G S, Valenzuela G, Rhode J 1986 Gonadotropin-releasing hormone effects on placental hormones during gestation: 1 Alpha-human chorionic gonadotropin, human chorionic gonadotropin and human chorionic somatomammotropin. Biol Reprod 34:245-254; Siler-Khodr T M, Khodr G S, Valenzuela G, Harper J, Rhode J 1986 GnRH effects on placental hormones during gestation. 111 Prostaglandin E, prostaglandin F, and 13, 14-dihydro-15-keto-prostaglandin F. Biol Reprod 35:312-319.
In these and additional studies, an explant culture system was used to determine the effect of mammalian GnRH (SEQ ID NO: 5), chicken II GnRH (SEQ ID NO: 6), or the D-Arg(6)-chicken II GnRH-aza-Gly(10)-amide analog (SEQ ID NO: 2) on the release of the hCG, progesterone, and prostaglandin E2. Human term placentas were dissected free of membranes, minced into fragments of 5 mm, rinsed in medium, and a total weight of ˜100 mg (20 explants) was placed on a sterile filter paper resting on an organ culture grid such that they touched the surface of the culture medium, but were not immersed in it. The medium contained penicillin, streptomycin, and fungizone at 100 U/mL, 100 μg/mL, and 2.5 μg/mL respectively with and without varying doses of GnRH isoforms or analogs was added to each Petri dish. Triplicate chambers for each media were made and incubated at 37 C in a humidified chamber with an atmosphere of 5% CO2 and 95% air. Spent media were collected and replaced after 2 hours, 24 hours, and 48 hour of culture and stored frozen at −20° C. until assayed for hormones. HCG, progesterone, and PGE2 were measured using specific double antibody procedures as described previously. The chicken II GnRH analog (SEQ ID NO: 2) was studied using four different human term placentas, and the native chicken II GnRH isoform was also studied using one human term placenta. Gibbons J M, Mitnick M, Chieffo V 1975 In vitro biosynthesis, of TSH- and LH-releasing factors by the human placenta. Am J Obstet Gynecol 121:127-131.

[10] = test system: baboon ovarian enzymatic activity
Procedure: In these studies the enzyme was in the ovarian extract.
In this assay, following incubation of the enzyme and GnRH, with and without the chosen analog, the reaction was stopped by heating and the remaining GnRH substrate was quantified by radioimmunoassay. The product formed is calculated by subtraction, and its inverse plotted against the inverse of the original substrate concentrations to determine the nature of the competition. The Ki was determined by plotting the inverse of the product formed versus the inhibitor used.

Ks for degradation by C-ase-1 ([3]; Lineweaver-Burke plot) [nM] | degradation by / competition for C-ase-1, in words [7] | decrease of affinity when the analog is used as label [8] [times] | Kd ([5]; 125I-Buserelin, Example VI, read-out: Kd) [nM] | Ks for degradation by ovarian tissues [10] [nM] | Compound | effect on progesterone release, in words [1] | hCG response ([2]; 10^−7 M) | average stimulation of hCG release, relative to control tissues ([2]; throughout five hours of perifusion) [%] | degradation by / competition for C-ase-1, in words [3] | degradation/competition relative to mammalian GnRH ([3]; Example III) | Ki ([3]; competition for degradation of mammalian GnRH, Example III) [nM] | Kd [4] [nM] | receptor activity/potency compared with GnRH ([5]; 125I-Buserelin, Example VI) | receptor binding potency compared with mammalian GnRH ([5]; Buserelin label, Example II) | Km [6] [µM] | effect on progesterone release [9] | effect on release of hCG [9]
 |  |  |  |  | CCNC(=O)[C@@H]1CCCN1C(=O)[C@H](CCCNC(=N)N)NC(=O)[C@H](CC(C)C)NC(=O)[C@@H](COC(C)(C)C)NC(=O)[C@H](Cc1ccc(O)cc1)NC(=O)[C@H](CO)NC(=O)[C@H](Cc1c[nH]c2ccccc12)NC(=O)[C@H](Cc1cnc[nH]1)NC(=O)[C@@H]1CCC(=O)N1 [Buserelin] | without significant effect | small stimulation of hCG at early time points | 150 | potent competitive inhibitors | one fourth the rate | 110 | 579 ± 84 | twice as active | three-fold more potent |  |  | 
~30 | actively degraded | 1.5 | 1000 | ~30 | CC(C)C[C@H](NC(=O)CNC(=O)[C@H](Cc1ccc(O)cc1)NC(=O)[C@H](CO)NC(=O)[C@H](Cc1c[nH]c2ccccc12)NC(=O)[C@H](Cc1cnc[nH]1)NC(=O)[C@@H]1CCC(=O)N1)C(=O)N[C@@H](CCCNC(=N)N)C(=O)N1CCC[C@H]1C(=O)NCC(N)=O [mammalian GnRH] |  |  |  |  |  |  |  |  |  | 0.01 | not affected by mammalian GnRH (SEQ ID NO: 5) in two of four placentas, but in one placenta it was significantly increased and in the other was decreased | no significant effect
